Data on 21 compounds can be found in patent US8389539B2, “Azacyclic derivatives” (Hoffman-La Roche Inc., priority 2009, dated 2013).

The structures appear in SMILES notation.

The assay has as its target T1, human HSL (Homo sapiens, UniProt Q05469).
T1 construct: overlapping PCR to generate a full length human HSL ORF with a 3′-His6 tag; His6 (C); made in house; host or cells: High 5 insect cells (baculovirus, pFast-BAC)
T1 sequence (Q05469 1-1076): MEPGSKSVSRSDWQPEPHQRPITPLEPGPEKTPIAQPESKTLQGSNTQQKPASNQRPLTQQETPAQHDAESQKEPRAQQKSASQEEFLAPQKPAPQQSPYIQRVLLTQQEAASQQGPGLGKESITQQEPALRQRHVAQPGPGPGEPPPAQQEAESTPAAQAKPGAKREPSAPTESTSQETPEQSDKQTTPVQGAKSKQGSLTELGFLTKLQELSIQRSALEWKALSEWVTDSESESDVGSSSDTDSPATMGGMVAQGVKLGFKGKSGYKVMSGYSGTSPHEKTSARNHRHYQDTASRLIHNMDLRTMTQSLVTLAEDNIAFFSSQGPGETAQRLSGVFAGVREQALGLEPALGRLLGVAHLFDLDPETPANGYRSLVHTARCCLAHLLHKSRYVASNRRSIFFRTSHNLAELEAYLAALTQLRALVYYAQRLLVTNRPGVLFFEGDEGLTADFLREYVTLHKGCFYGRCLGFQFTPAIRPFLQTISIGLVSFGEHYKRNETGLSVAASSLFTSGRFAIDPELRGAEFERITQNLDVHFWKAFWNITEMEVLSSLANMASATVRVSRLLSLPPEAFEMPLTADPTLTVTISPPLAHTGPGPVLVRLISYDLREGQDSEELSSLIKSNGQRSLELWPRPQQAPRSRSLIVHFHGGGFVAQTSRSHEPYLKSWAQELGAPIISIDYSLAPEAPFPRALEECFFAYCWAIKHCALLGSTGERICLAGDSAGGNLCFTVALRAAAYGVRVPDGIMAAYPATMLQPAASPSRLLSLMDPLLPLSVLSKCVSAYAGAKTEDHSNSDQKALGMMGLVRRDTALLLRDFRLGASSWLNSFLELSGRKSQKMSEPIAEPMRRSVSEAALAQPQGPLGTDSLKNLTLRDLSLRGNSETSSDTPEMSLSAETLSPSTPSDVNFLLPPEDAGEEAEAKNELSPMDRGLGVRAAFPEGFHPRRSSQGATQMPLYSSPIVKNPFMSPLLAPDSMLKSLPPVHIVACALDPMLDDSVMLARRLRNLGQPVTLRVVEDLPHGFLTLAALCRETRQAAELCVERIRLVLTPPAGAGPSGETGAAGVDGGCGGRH
In words: Human Hormone-Sensitive Lipase (HSL) enzyme inhibition assay (colorimetric, DMPT substrate). It counts as biochemical. The settings on record: human full length HSL-His6, 2,3-dimercapto-1-propanol tributyrate substrate, 37° C. 20 minutes, absorbance at 405 nm; read-out: HSL hum IC50. The procedure:
1) Cloning: cDNA was prepared from commercial human brain polyA+ RNA and used as a template in overlapping PCR to generate a full length human HSL ORF with a 3′-His6 tag. This full length insert was cloned into the pFast-BAC vector and the DNA-sequence of several single clones was verified. DNA from a correct full length clone with the 3′His6 tag was used to transform the E. coli strain DH10BAC. Resulting bacmid DNA was used to generate a titered baculovirus stock for protein generation.
Cells were thawed. […] was done at 3×30 sec., Lubrol PX was added to 0.2% final concentration followed by stirring for 15 min. at 4° C. and centrifugation at 25 k×g, 60 min., 4° C. […] Supernatant was removed, the resin washed in the centrifuge vessel using 5 volumes of Base Buffer containing 0.2% Lubrol PX. Centrifugation was done again, then the supernatant discarded. The resin was poured onto a 0.8 μm membrane in a disposable filter unit (Nalge 450-0080), and washed with 5 volumes of Base Buffer containing 0.2% Lubrol PX. It was then washed with 30 volumes of Base Buffer containing 60 mM imidazole pH 7.5 at 4° C. The protein was eluated with 5 volumes of 25 mM Tris-Cl, 300 mM NaCl, 200 mM imidazole, 10 mM 2-mercaptoethanol, pH 7.5 at 4° C. by tumbling resin with buffer end-over-end, 30 min., 4° C. The resin was captured on a 0.2 μm membrane disposable filter unit (Millipore SCGP U02 RE) and the eluate collected in the reservoir. The eluate was concentrated using a 30 k MWCO centrifugal filter device (Sartorius Vivascience Vivacell 100, VC1022), to 20 ml. It was then dialyzed overnight at 4° C., two times against 2 L of 10% glycerol, 25 mM Tris-Cl, 300 mM NaCl, 0.2 mM EDTA, 0.2 mM DTT, pH 7.5 at 4° C. The protein was filtered using a 0.22 μm disposable filter unit (Millipore SCGP00525). The protein concentration was calculated from absorbance at 280 nm, using 280=0.67 cm-1 mg-1. […] The protein was stored at −80° C.
Human Hormone-Sensitive Lipase (HSL) Enzyme Inhibition Assay:
HSL enzyme activity was measured by a colorimetric assay using 2,3-dimercapto-1-propanol tributyrate (Aldrich, St. Louis, Mo.) as a substrate. Typically, 1.5 mM 2,3-dimercapto-1-propanol tributyrate (DMPT) in 100 mM MOPS, pH 7.2, 0.2 mg/ml fatty acid-free BSA was prepared by sonication at 4° C. to homogenous suspension. Test compounds (2 mM stock in DMSO) were diluted 3 fold in series in DMSO. Compound solutions were diluted 24 fold in 1.5 mM DMPT containing solution and 18 ul per well was added to 384-well microplates (Corning Costar). Twelve microliters per well of human HSL (15 ug/ml) was added and the reaction mixture was incubated at 37° C. for 20 minutes. Six microliters of 12 mM dithio-bis-(2-nitrobenzoic acid) (DTNB) in DMSO plus 1.2% SDS and 0.6% Triton X-100 were added and the mixture was incubated at room temperature for 15 minutes. Product production was monitored by reading absorbance at 405 nm on an Envision Reader (PerkinElmer Life and Analytical Sciences, Shelton, Conn.).
Broadly, the IC50 is the concentration at which inhibition is half-maximal. For `O=C1N(c2ccc(C3CC3)cc2)CCC12CCN(CC(O)c1ccc(Cl)cc1)CC2` (stereo not drawn) [Example 24, 8-[2-(4-Chloro-phenyl)-2-hydroxy-ethyl]-2-(4-cyclopropyl-phenyl)-2,8-diaza-spiro[4.5]decan-1-one], the IC50 is 0.08 µM.
To `CC(C(=O)Nc1ccc(F)cc1)N1CCC2(CCN(c3ccc(C4CC4)cc3)C2=O)CC1` (stereo not drawn) [Example 25, 2-[2-(4-Cyclopropyl-phenyl)-1-oxo-2,8-diaza-spiro[4.5]dec-8-yl]-N-(4-fluoro-phenyl)-propionamide] belongs 0.04 µM; to `CCC(C(=O)Nc1ccc(F)cc1)N1CCC2(CCN(c3ccc(C4CC4)cc3)C2=O)CC1` (stereo not drawn) [Example 26, 2-[2-(4-Cyclopropyl-phenyl)-1-oxo-2,8-diaza-spiro[4.5]dec-8-yl]-N-(4-fluoro-phenyl)-butyramide], 0.05 µM.
Turning to `CCCCNC(=O)C(C)N1CCC2(CCN(c3ccc(C4CC4)cc3)C2=O)CC1` (stereo not drawn) [Example 27, N-Butyl-2-[2-(4-cyclopropyl-phenyl)-1-oxo-2,8-diaza-spiro[4.5]dec-8-yl]-propionamide], the IC50 amounted to 0.03 µM.
Take `CCCCNC(=O)C(CC)N1CCC2(CCN(c3ccc(C4CC4)cc3)C2=O)CC1` (stereo not drawn) [Example 28, N-Butyl-2-[2-(4-cyclopropyl-phenyl)-1-oxo-2,8-diaza-spiro[4.5]dec-8-yl]-butyramide]: the IC50 worked out at 0.03 µM.
For the compound `CCCCNC(=O)C(c1ccccc1)N1CCC2(CCN(c3ccc(C4CC4)cc3)C2=O)CC1` (stereo not drawn) [Example 29, N-Butyl-2-[2-(4-cyclopropyl-phenyl)-1-oxo-2,8-diaza-spiro[4.5]dec-8-yl]-2-phenyl-acetamide], the concentration for half-maximal inhibition (IC50) stood at 0.04 µM.
To `CCCCNC(=O)C(CCCC)N1CCC2(CCN(c3ccc(C4CC4)cc3)C2=O)CC1` (stereo not drawn) [Example 30, 2-[2-(4-Cyclopropyl-phenyl)-1-oxo-2,8-diaza-spiro[4.5]dec-8-yl]-hexanoic acid butylamide] belongs 0.02 µM; to `CCCCNC(=O)C(C(C)C)N1CCC2(CCN(c3ccc(C4CC4)cc3)C2=O)CC1` (stereo not drawn) [Example 31, N-Butyl-2-[2-(4-cyclopropyl-phenyl)-1-oxo-2,8-diaza-spiro[4.5]dec-8-yl]-3-methyl-butyramide], 0.02 µM.
Consider `O=C1N(c2ccc(C3CC3)cc2)CCC12CCN(C[C@@H](O)c1ccccc1)CC2` [Example 32, 2-(4-Cyclopropyl-phenyl)-8-((S)-2-hydroxy-2-phenyl-ethyl)-2,8-diaza-spiro[4.5]decan-1-one], for which the IC50 was found to be 0.09 µM.
To `O=C1N(c2ccc(C3CC3)cc2)CCC12CCN(C[C@H](O)c1ccccc1)CC2` [Example 33, 2-(4-Cyclopropyl-phenyl)-8-((R)-2-hydroxy-2-phenyl-ethyl)-2,8-diaza-spiro[4.5]decan-1-one] belongs 0.04 µM; to `CC(O)(CN1CCC2(CC1)CCN(c1ccc(C3CC3)cc1)C2=O)c1ccccc1` (stereo not drawn) [Example 34, 2-(4-Cyclopropyl-phenyl)-8-(2-hydroxy-2-phenyl-propyl)-2,8-diaza-spiro[4.5]decan-1-one], 0.1 µM.
To `O=C1N(c2ccc(C3CC3)cc2)CCC12CCN(C[C@H](O)c1ccc(F)cc1)CC2` [Example 35, 2-(4-Cyclopropyl-phenyl)-8-[(R)-2-(4-fluoro-phenyl)-2-hydroxy-ethyl]-2,8-diaza-spiro[4.5]decan-1-one] belongs 0.02 µM; to `O=C1N(c2ccc(C3CC3)cc2)CCC12CCN(C[C@H](O)c1cccc(Cl)c1)CC2` [Example 36, 8-[(R)-2-(3-Chloro-phenyl)-2-hydroxy-ethyl]-2-(4-cyclopropyl-phenyl)-2,8-diaza-spiro[4.5]decan-1-one], 0.03 µM; to `O=C1N(c2ccc(C3CC3)cc2)CCC12CCN(CC(O)c1ccc(Cl)c(Cl)c1)CC2` (stereo not drawn) [Example 37, 2-(4-Cyclopropyl-phenyl)-8-[2-(3,4-dichloro-phenyl)-2-hydroxy-ethyl]-2,8-diaza-spiro[4.5]decan-1-one], 0.03 µM.
In the case of `O=C1N(c2ccc(C3CC3)cc2)CCC12CCN(CC(O)c1ccc(Cl)cc1Cl)CC2` (stereo not drawn) [Example 38, 2-(4-Cyclopropyl-phenyl)-8-[2-(2,4-dichloro-phenyl)-2-hydroxy-ethyl]-2,8-diaza-spiro[4.5]decan-1-one] it was 0.03 µM.
`COc1ccc(C(C(O)C(N)=O)N2CCC3(CCN(c4ccc(C5CC5)cc4)C3=O)CC2)cc1` (stereo not drawn) [Example 40, 3-[2-(4-Cyclopropyl-phenyl)-1-oxo-2,8-diaza-spiro[4.5]dec-8-yl]-2-hydroxy-3-(4-methoxy-phenyl)-propionamide]: the concentration for half-maximal inhibition (IC50) stood at 0.165 µM.
In the case of `CCCCNC(=O)[C@H](CCCC)N1CCC2(CCN(c3ccc(C4CC4)cc3)C2=O)CC1` [Example 41, (S)-2-[2-(4-Cyclopropyl-phenyl)-1-oxo-2,8-diaza-spiro[4.5]dec-8-yl]-hexanoic acid butylamide] it was 0.047 µM; in that of `CCCCNC(=O)[C@@H](CCCC)N1CCC2(CCN(c3ccc(C4CC4)cc3)C2=O)CC1` [Example 42, (R)-2-[2-(4-Cyclopropyl-phenyl)-1-oxo-2,8-diaza-spiro[4.5]dec-8-yl]-hexanoic acid butylamide], 0.011 µM.
With `CCc1ccc(N2CCC3(CCN(CC(=O)c4ccc(Cl)cc4Cl)CC3)C2=O)cc1` [Example 43, 8-[2-(2,4-Dichloro-phenyl)-2-oxo-ethyl]-2-(4-ethyl-phenyl)-2,8-diaza-spiro[4.5]decan-1-one], the concentration for half-maximal inhibition (IC50) was found to be 0.036 µM.
On to `O=C1N(c2ccc(OCC(F)(F)F)cc2)CCC12CCN(CC(O)c1ccc(Cl)cc1Cl)CC2` (stereo not drawn) [Example 44, 8-[2-(2,4-Dichloro-phenyl)-2-hydroxy-ethyl]-2-[4-(2,2,2-trifluoro-ethoxy)-phenyl]-2,8-diaza-spiro[4.5]decan-1-one], for which the IC50 was determined as 0.026 µM.
For the compound `C[C@@H](Oc1ccc(N2CCC3(CCN(CC(O)c4ccc(Cl)cc4Cl)CC3)C2=O)cn1)C(F)(F)F` (stereo partly drawn) [Example 45, 8-[2-(2,4-Dichloro-phenyl)-2-hydroxy-ethyl]-2-[6-((R)-2,2,2-trifluoro-1-methyl-ethoxy)-pyridin-3-yl]-2,8-diaza-spiro[4.5]decan-1-one], the IC50 stood at 0.022 µM.
